In brackets after ≈: the same amount, converted by molar mass. Activity calls are given as the source filed them. The rule behind the calls is not given here.
Legend:
[1] = biological target: E3 ubiquitin-protein ligase XIAP/Receptor-interacting serine/threonine-protein kinase 2 (Homo sapiens, UniProt O43353+P98170); assay: Protac activity at IAP/RIPK2 in human whole blood assessed as inhibition of MDP-induced TNFalpha production by ELISA; type: tissue-based
[2] = biological target: Receptor-interacting serine/threonine-protein kinase 2 (Homo sapiens, UniProt O43353); assay: Inhibition of full length His-tagged RIPK2 (unknown origin) expressed in baculovirus expression system using fluorescent labelled ATP competitive ligand by fluorescent polarization based binding assay
Receptor-interacting serine/threonine-protein kinase 2, sequence (O43353 whole entry): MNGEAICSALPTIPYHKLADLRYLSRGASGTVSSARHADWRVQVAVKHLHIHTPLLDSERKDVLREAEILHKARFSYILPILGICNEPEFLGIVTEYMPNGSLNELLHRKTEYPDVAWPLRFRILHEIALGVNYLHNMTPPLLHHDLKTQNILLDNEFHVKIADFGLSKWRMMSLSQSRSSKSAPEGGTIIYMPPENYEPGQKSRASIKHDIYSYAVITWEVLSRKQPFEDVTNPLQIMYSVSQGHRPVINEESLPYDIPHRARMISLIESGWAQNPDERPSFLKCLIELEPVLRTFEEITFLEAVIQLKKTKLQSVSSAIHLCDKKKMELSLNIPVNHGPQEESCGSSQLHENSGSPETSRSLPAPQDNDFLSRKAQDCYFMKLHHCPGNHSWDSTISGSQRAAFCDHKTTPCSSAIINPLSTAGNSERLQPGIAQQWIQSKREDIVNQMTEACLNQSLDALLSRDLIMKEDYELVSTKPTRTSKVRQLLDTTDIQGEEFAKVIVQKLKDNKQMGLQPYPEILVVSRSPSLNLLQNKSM

[3] = biological target: E3 ubiquitin-protein ligase XIAP/Receptor-interacting serine/threonine-protein kinase 2 (Homo sapiens, UniProt P98170+O43353); assay: Protac activity at IAP/RIPK2 in human THP-1 cells assessed as induction of RIPK2 degradation by measuring decrease in protein level incubated for 18 hrs by capillary-based immunoassay; type: cell-based
E3 ubiquitin-protein ligase XIAP/Receptor-interacting serine/threonine-protein kinase 2 (Homo sapiens, UniProt P98170+O43353), sequence (P98170 whole entry): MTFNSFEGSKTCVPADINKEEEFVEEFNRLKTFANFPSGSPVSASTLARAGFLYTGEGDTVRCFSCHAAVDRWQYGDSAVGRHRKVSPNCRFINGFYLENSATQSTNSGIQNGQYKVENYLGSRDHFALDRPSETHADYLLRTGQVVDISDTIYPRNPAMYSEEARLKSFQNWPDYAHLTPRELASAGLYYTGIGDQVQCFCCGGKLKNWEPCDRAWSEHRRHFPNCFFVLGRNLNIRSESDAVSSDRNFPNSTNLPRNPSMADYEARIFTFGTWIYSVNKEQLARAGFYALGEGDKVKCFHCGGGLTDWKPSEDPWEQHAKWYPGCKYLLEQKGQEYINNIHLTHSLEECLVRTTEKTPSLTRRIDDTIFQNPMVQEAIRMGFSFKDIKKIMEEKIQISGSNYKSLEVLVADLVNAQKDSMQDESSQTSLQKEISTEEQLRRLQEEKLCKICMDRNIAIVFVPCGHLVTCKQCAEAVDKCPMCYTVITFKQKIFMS
E3 ubiquitin-protein ligase XIAP/Receptor-interacting serine/threonine-protein kinase 2 (Homo sapiens, UniProt P98170+O43353), sequence (O43353 whole entry): as the sequence (O43353 whole entry) above

[4] = Solubility of the compound by chemiluminescent nitrogen detection (CLND) method; type: physicochemical
[5] = Lipophilicity, logD of compound at pH 7.4 by Chromatography; type: physicochemical; conditions: buffer
[6] = Binding affinity to human His-thr XIAP BIR2 (124 to 240) domain expressed in Escherichia coli measured after 105 mins in dark by time-resolved fluorescence laser-equipped multimode plate reader
[7] = biological target: E3 ubiquitin-protein ligase XIAP (Homo sapiens, UniProt P98170); assay: Binding affinity to human His-thr XIAP BIR3 (241 to 356) domain expressed in Escherichia coli measured after 105 mins in dark by time-resolved fluorescence laser-equipped multimode plate reader
E3 ubiquitin-protein ligase XIAP, sequence (P98170 whole entry): as the sequence (P98170 whole entry) above

[8] = Metabolic stability in human liver microsomes assessed as intrinsic clearance using pH 7.4 phosphate buffer incubated for 45 mins by LC-MS/MS analysis; type: ADME, Microsome; conditions: pH 7.4, 0.75 h
[9] = Metabolic stability in rat liver microsomes assessed as intrinsic clearance using pH 7.4 phosphate buffer incubated for 45 mins by LC-MS/MS analysis; type: ADME, Microsome; conditions: pH 7.4, 0.75 h
[10] = biological target: T1, Protein cereblon/Receptor-interacting serine/threonine-protein kinase 2 (Homo sapiens, UniProt O43353+Q96SW2); assay: Protac activity at CRBN/RIPK2 in human THP-1 cells assessed as induction of RIPK2 degradation by measuring decrease in protein level incubated for 18 hrs by capillary-based immunoassay; type: cell-based
T1 sequence (O43353 whole entry): as the sequence (O43353 whole entry) above
T1 sequence (Q96SW2 whole entry): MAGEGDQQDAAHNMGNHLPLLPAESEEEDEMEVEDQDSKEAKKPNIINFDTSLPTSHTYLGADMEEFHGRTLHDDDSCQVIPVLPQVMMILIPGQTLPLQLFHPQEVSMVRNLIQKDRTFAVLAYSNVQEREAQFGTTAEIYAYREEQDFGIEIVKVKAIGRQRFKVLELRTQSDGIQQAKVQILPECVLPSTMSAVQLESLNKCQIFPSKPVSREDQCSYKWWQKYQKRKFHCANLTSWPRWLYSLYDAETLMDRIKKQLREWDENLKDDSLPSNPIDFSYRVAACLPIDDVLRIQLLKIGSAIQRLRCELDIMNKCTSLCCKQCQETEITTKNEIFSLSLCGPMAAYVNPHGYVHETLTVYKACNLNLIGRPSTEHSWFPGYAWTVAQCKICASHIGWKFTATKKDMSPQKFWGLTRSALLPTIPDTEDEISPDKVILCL

[11] = biological target: T1, Protein cereblon/Receptor-interacting serine/threonine-protein kinase 2; assay: Protac activity at CRBN/RIPK2 in human whole blood assessed as inhibition of MDP-induced TNFalpha production by ELISA; type: tissue-based
[12] = biological target: T2, von Hippel-Lindau disease tumor suppressor/Receptor-interacting serine/threonine-protein kinase 2 (Homo sapiens, UniProt O43353+P40337); assay: Protac activity at VHL/RIPK2 in human THP-1 cells assessed as induction of RIPK2 degradation by measuring decrease in protein level incubated for 16 hrs by Western blot analysis; type: cell-based
T2 sequence (O43353 whole entry): as the sequence (O43353 whole entry) above
T2 sequence (P40337 whole entry): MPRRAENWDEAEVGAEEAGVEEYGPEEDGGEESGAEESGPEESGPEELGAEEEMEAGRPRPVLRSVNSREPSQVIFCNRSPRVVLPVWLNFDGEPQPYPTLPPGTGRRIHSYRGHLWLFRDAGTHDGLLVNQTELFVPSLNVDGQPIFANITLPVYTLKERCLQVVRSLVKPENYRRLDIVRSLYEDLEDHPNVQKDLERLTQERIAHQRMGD

[13] = biological target: T2, von Hippel-Lindau disease tumor suppressor/Receptor-interacting serine/threonine-protein kinase 2; assay: Protac activity at VHL/RIPK2 in human whole blood assessed as inhibition of MDP-induced TNFalpha production by ELISA; type: tissue-based
[14] = (§1) Ex vivo protac activity at IAP/RIPK2 in rat assessed as RIPK2 degradation at 0.5 mg/kg, sc measured for 8 to 48 hrs; type: functional; conditions: time 8-48 hrs
[15] = (§2) Ex vivo protac activity at IAP/RIPK2 in rat assessed as inhibition of MDP-induced TNFalpha release at 0.5 mg/kg, sc measured for 8 to 48 hrs; type: functional; parameters: scale not given: the % may be the effect or the level left; conditions: time 8-48 hrs
Rattus norvegicus [16] = assay: as §1; type: functional; conditions: time 8-48 hrs
Rattus norvegicus [17] = assay: as §2; type: functional; conditions: time 8-48 hrs

E3 ubiquitin-protein ligase XIAP/Receptor-interacting serine/threonine-protein kinase 2 (Homo sapiens, UniProt O43353+P98170), sequence (P98170 whole entry): as the sequence (P98170 whole entry) above
E3 ubiquitin-protein ligase XIAP/Receptor-interacting serine/threonine-protein kinase 2 (Homo sapiens, UniProt O43353+P98170), sequence (O43353 whole entry): as the sequence (O43353 whole entry) above

| IC50 [1] [nM] | IC50 [2] [nM] | SMILES | also measured |
| --- | --- | --- | --- |
| 12.6 | 31.6 | CN[C@@H](C)C(=O)N[C@H](C(=O)N1CCC[C@H]1c1nc(C(=O)c2ccc(F)cc2)cs1)C1CCN(C(=O)c2ccc(N3CCN(CCCOc4cc5ncnc(Nc6n[nH]c(C)c6C)c5cc4S(=O)(=O)C(C)(C)C)CC3)cc2)CC1 | – |
| 7.94 | 10 | CN[C@@H](C)C(=O)N[C@H](C(=O)N1CCC[C@H]1c1nc(C(=O)c2ccc(F)cc2)cs1)C1CCN(C(=O)c2ccc(N3CCN(CCCOc4cc5ncnc(Nc6n[nH]c(C)c6C)c5cc4S(=O)(=O)C(C)(C)C)CC3)nc2)CC1 | – |
| 2 | 7.94 | CN[C@@H](C)C(=O)N[C@H](C(=O)N1CCC[C@H]1c1nc(C(=O)c2ccc(F)cc2)cs1)C1CCN(C(=O)c2cnc(N3CCN(CCCOc4cc5ncnc(Nc6n[nH]c(C)c6C)c5cc4S(=O)(=O)C(C)(C)C)CC3)nc2)CC1 | – |
| 20 | – | CN[C@@H](C)C(=O)N[C@H](C(=O)N1CCC[C@H]1c1nc(C(=O)c2ccc(F)cc2)cs1)C1CCN(C(=O)c2cnc(N3CCN(CCOc4cc5ncnc(Nc6n[nH]c(C)c6C)c5cc4S(=O)(=O)C(C)(C)C)CC3)nc2)CC1 | solubility kinetic [4]: > 311 µM; CLH [8]: 0.74 mL/min/g; CLH [9]: 0.48 mL/min/g |
| 15.8 | 39.8 | CN[C@@H](C)C(=O)N[C@H](C(=O)N1CCC[C@H]1c1nc(C(=O)c2ccc(F)cc2)cs1)C1CCN(C(=O)c2cnc(N3CCC(CCOc4cc5ncnc(Nc6n[nH]c(C)c6C)c5cc4S(=O)(=O)C(C)(C)C)CC3)nc2)CC1 | – |
| 63.1 | 158 | CN[C@@H](C)C(=O)N[C@H](C(=O)N1CCC[C@H]1c1nc(C(=O)c2ccc(F)cc2)cs1)C1CCN(C(=O)COCCOCCOCCOCCOc2cc3ncnc(Nc4n[nH]c(C)c4C)c3cc2S(=O)(=O)C(C)(C)C)CC1 | – |
| 25.1 | 10 | CN[C@@H](C)C(=O)N[C@H](C(=O)N1CCC[C@H]1c1nc(C(=O)c2ccc(F)cc2)cs1)C1CCN(C(=O)c2cnc(N3CCC(COc4cc5ncnc(Nc6n[nH]c(C)c6C)c5cc4S(=O)(=O)C(C)(C)C)CC3)nc2)CC1 | – |
| 10 | 126 | CN[C@@H](C)C(=O)N[C@H](C(=O)N1CCC[C@H]1c1nc(C(=O)c2ccc(F)cc2)cs1)C1CCN(C(=O)c2ccc(N3CCN(CCOc4cc5ncnc(Nc6n[nH]c(C)c6C)c5cc4S(=O)(=O)C(C)(C)C)CC3)nc2)CC1 | solubility kinetic [4]: > 304 µM; CLH [8]: 1.17 mL/min/g; CLH [9]: 0.55 mL/min/g |
| 15.8 | 158 | CN[C@@H](C)C(=O)N[C@H](C(=O)N1CCC[C@H]1c1nc(C(=O)c2ccc(F)cc2)cs1)C1CCN(C(=O)c2cnc(N3CCN(CCOc4cc5ncnc(Nc6n[nH]c(C)c6C)c5cc4S(=O)(=O)C(C)(C)C)CC3)cn2)CC1 | solubility kinetic [4]: 271 µM (≈ 296 µg/mL); CLH [8]: 0.57 mL/min/g; CLH [9]: < 0.46 mL/min/g |
| 1.58 | 12.6 | CN[C@@H](C)C(=O)N[C@H](C(=O)N1CCC[C@H]1c1nc(C(=O)c2ccc(F)cc2)cs1)C1CCN(C(=O)c2cnc(N3CCN(CCCOc4cc5ncnc(Nc6n[nH]c(C)c6C)c5cc4S(=O)(=O)C(C)(C)C)CC3)cn2)CC1 | Activity [14]: >70%; Activity [15]: 100%; pIC50 [6]: 5.8; IC50 [7]: 39.8 nM |
| 2.51 | 0.158 | CN[C@H](C)C(=O)N[C@@H](C(=O)N1C[C@@H](NC(=O)c2cnc(N3CCN(CCCOc4cc5ncnc(Nc6n[nH]c(C)c6C)c5cc4S(=O)(=O)C(C)(C)C)CC3)cn2)C[C@H]1c1nc(C(=O)c2ccc(F)cc2)cs1)C(C)(C)C | – |
| 3.16 | 31.6 | CN[C@@H](C)C(=O)N[C@H](C(=O)N1CCC[C@H]1c1nc(C(=O)c2ccc(F)cc2)cs1)C1CCN(C(=O)c2cnc(N3CCC(CCCOc4cc5ncnc(Nc6n[nH]c(C)c6C)c5cc4S(=O)(=O)C(C)(C)C)CC3)nc2)CC1 | – |

Second part, the compound before the results:

| SMILES | IC50 [1] [nM] | IC50 [2] [nM] | also measured |
| --- | --- | --- | --- |
| CN[C@@H](C)C(=O)N[C@H](C(=O)N1Cc2cc(OCCOCCOCCOCCOc3cc4nccc(Nc5ccc6scnc6c5)c4cc3S(=O)(=O)C(C)(C)C)ccc2C[C@@H]1C(=O)N[C@@H]1CCCc2ccccc21)C(C)(C)C | 10 | 10 | DC50 [3]: 0.2 nM; solubility kinetic [4]: 21 µM (≈ 22.9 µg/mL); chromatographic logD [5]: 6.1 |
| CN[C@@H](C)C(=O)N[C@H](C(=O)N1Cc2cc(OCCOCCOCCOCCOc3cc4ncnc(Nc5n[nH]c(C)c5C)c4cc3S(=O)(=O)C(C)(C)C)ccc2CC1C(=O)N[C@@H]1CCCc2ccccc21)C(C)(C)C (single isomer, unassigned) | 31.6 | 398 | – |
| Cc1[nH]nc(Nc2ncnc3cc(OCCCN4CCN(C(=O)c5cnc(N6CCN(C[C@H]7CN[C@H](C)CN7CC(=O)N7CC(C)(C)c8c7cc(Cc7ccc(F)cc7)c(=O)n8C)[C@H](C)C6)nc5)CC4)c(S(=O)(=O)C(C)(C)C)cc23)c1C | 6.31 | 7.94 | pIC50 [6]: < 4; IC50 [7]: 12.6 nM |
| CC[C@@H](NC(=O)[C@@H]1C[C@H](NC(=O)COCCOCCOCCOCCOc2cc3nccc(Nc4ccc5scnc5c4)c3cc2S(=O)(=O)C(C)(C)C)CN1C(=O)[C@@H](NC(=O)[C@H](C)NC)C(C)(C)C)c1ccccc1 | 25.1 | 2 | solubility kinetic [4]: > 235 µM; chromatographic logD [5]: 5.6 |
| CN[C@@H](C)C(=O)N[C@H]1CN(C(=O)c2cnc(N3CCN(CCCOc4cc5ncnc(Nc6n[nH]c(C)c6C)c5cc4S(=O)(=O)C(C)(C)C)CC3)cn2)CC[C@H]2CC[C@@H](C(=O)N[C@@H]3CCCc4ccccc43)N2C1=O | 3.16 | 0.1 | – |
| CC(C)(C)S(=O)(=O)c1cc2c(Nc3ccc4scnc4c3)ccnc2cc1OCCOCCOCCOCCOCC(=O)Nc1cccc2c1CN(C1CCC(=O)NC1=O)C2=O (centres undefined) | – | – | DC50 [10]: 6.2 nM; IC50 [11]: 63.1 nM |
| CN[C@@H](C)C(=O)N[C@H](C(=O)N1CCC[C@H]1c1nc(C(=O)c2ccc(F)cc2)cs1)C1CCN(C(=O)COCCOCCOCCOCCOc2cc3nccc(Nc4ccc5scnc5c4)c3cc2S(=O)(=O)C(C)(C)C)CC1 | 10 | 5.01 | solubility kinetic [4]: 308 µM (≈ 348 µg/mL); chromatographic logD [5]: 4.5 |
| Cc1ncsc1-c1ccc(CNC(=O)[C@@H]2C[C@@H](O)CN2C(=O)[C@@H](NC(=O)COCCOCCOCCOCCOc2cc3nccc(Nc4ccc5scnc5c4)c3cc2S(=O)(=O)C(C)(C)C)C(C)(C)C)cc1 | – | – | DC50 [12]: 1.5 nM; IC50 [13]: 100 nM; IC50 [11]: 100 nM |
| CN[C@@H](C)C(=O)N[C@H](C(=O)N1C[C@@H](NC(=O)c2cnc(N3CCN(CCCOc4cc5ncnc(Nc6n[nH]c(C)c6C)c5cc4S(=O)(=O)C(C)(C)C)CC3)cn2)CC1C(=O)NC1CCCc2ccccc21)C(C)(C)C (some centres undefined) | – | 12.6 | – |
| Cc1[nH]nc(Nc2ncnc3cc(OCCCN4CCN(C(=O)c5cnc(N6CCN(C[C@H]7CN[C@H](C)CN7CC(=O)N7CC(C)(C)c8ncc(Cc9ccc(F)cc9)cc87)[C@H](C)C6)nc5)CC4)c(S(=O)(=O)C(C)(C)C)cc23)c1C | 2.51 | 25.1 | – |
| CN[C@@H](C)C(=O)N[C@H]1CN(C(=O)c2cnc(N3CCN(CCCOc4cc5ncnc(Nc6n[nH]c(C)c6C)c5cc4S(=O)(=O)C(C)(C)C)CC3)cn2)CC[C@H]2CC[C@@H](C(=O)NC3CCCc4ccccc43)N2C1=O (some centres undefined) | – | 6.31 | – |
| CN[C@H](C)C(=O)N[C@H](C(=O)N1C[C@@H](NC(=O)c2cnc(N3CCN(CCCOc4cc5ncnc(Nc6n[nH]c(C)c6C)c5cc4S(=O)(=O)C(C)(C)C)CC3)cn2)C[C@H]1C(=O)Nc1c(F)cccc1F)C(C)(C)C | – | – | Activity (Rattus norvegicus [16]): Active; Activity (Rattus norvegicus [17]): Active; IC50 [7]: 6310 nM |

Source: ChEMBL document CHEMBL4831517, “Optimization of a Series of RIPK2 PROTACs” (J Med Chem, 2021)
